Reference: ChEMBL document CHEMBL1128838, “Synthesis of antiparasitic licorice chalcones” (1995)

What was measured:
[1] = Evaluated for the PHA (phytohemagglutininin A) induced proliferation of human peripheral lymphocytes at a dose of 10 ug/ml; format: functional
Leishmania major [2] = experiment: Antiparasitic activity was estimated by ability to inhibit the in vitro growth of Leishmania major measured by the decreased uptake of [3H]thymidine at 1 ug/mL; format: functional
[3] = Evaluated for the PHA (phytohemagglutininin A) induced proliferation of human peripheral lymphocytes at a dose of 1 ug/ml; format: functional
[4] = Evaluated for the PHA (phytohemagglutininin A) induced proliferation of human peripheral lymphocytes at a dose of 20 ug/ml; format: functional
Leishmania major [5] = experiment: Antiparasitic activity was estimated by ability to inhibit the in vitro growth of Leishmania major measured by the decreased uptake of [3H]-thymidine at 20 ug/mL; format: functional
Leishmania major [6] = experiment: Antiparasitic activity was estimated by ability to inhibit the in vitro growth of Leishmania major measured by the decreased uptake of [3H]thymidine at 10 ug/mL; format: functional
[7] = Evaluated for the PHA (phytohemagglutininin A) induced proliferation of human peripheral lymphocytes at a dose of 5 ug/ml; format: functional
Leishmania major [8] = experiment: Antiparasitic activity was estimated by ability to inhibit the in vitro growth of Leishmania major measured by the decreased uptake of [3H]thymidine at 5 ug/mL; format: functional
Leishmania major [9] = experiment: Antiparasitic activity was estimated by ability to inhibit the in vitro growth of Leishmania major measured by the decreased uptake of [3H]thymidine at 100 ug/mL; format: functional
Leishmania donovani [10] = experiment: Inhibition of [3H]thymidine uptake in amastigotes of Leishmania donovani in infected human peripheral blood monocyte derived macrophages at a dose of 5 ug/ml; format: functional
Leishmania donovani [11] = experiment: Inhibition of [3H]thymidine uptake in amastigotes of Leishmania donovani in infected human peripheral blood monocyte derived macrophages at a dose of 0.5 ug/ml; format: functional
Leishmania donovani [12] = experiment: Inhibition of [3H]thymidine uptake in amastigotes of Leishmania donovani in infected human peripheral blood monocyte derived macrophages at a dose of 1 ug/ml; format: functional
[13] = Evaluated for the PHA (phytohemagglutininin A) induced proliferation of human peripheral lymphocytes at a dose of 50 ug/ml; format: functional
Leishmania major [14] = experiment: Antiparasitic activity was estimated by ability to inhibit the in vitro growth of Leishmania major measured by the decreased uptake of [3H]thymidine at 50 ug/mL; format: functional
[15] = Evaluated for the PHA (phytohemagglutininin A) induced proliferation of human peripheral lymphocytes at a dose of 100 ug/ml; format: functional
[16] = Evaluated for the PHA (phytohemagglutininin A) induced proliferation of human peripheral lymphocytes at a dose of 25 ug/ml; format: functional
Leishmania major [17] = experiment: Antiparasitic activity was estimated by ability to inhibit the in vitro growth of Leishmania major measured by the decreased uptake of [3H]thymidine at 25 ug/mL; format: functional
Leishmania donovani [18] = experiment: Inhibition of [3H]-thymidine uptake in amastigotes of Leishmania donovani in infected human peripheral blood monocyte derived macrophages at a dose of 10 ug/ml; format: functional
Leishmania major [19] = experiment: Compound was tested for its ability to inhibit the growth of Leishmania major at a dose of 100 ug/ml; format: functional, organism-based
Leishmania major [20] = experiment: Compound was tested for its ability to inhibit the growth of Leishmania major at a dose of 10 ug/ml; format: functional, organism-based
Leishmania major [21] = experiment: Compound was tested for its ability to inhibit the growth of Leishmania major at a dose of 1 ug/ml; format: functional, organism-based

Row | Molecule | inhibition at 10 µg/mL [1] [%] | inhibition at 1 µg/mL (Leishmania major [2]) [%] | inhibition at 1 µg/mL [3] [%] | inhibition at 20 µg/mL [4] [%] | inhibition at 20 µg/mL (Leishmania major [5]) [%] | inhibition at 10 µg/mL (Leishmania major [6]) [%] | inhibition at 5 µg/mL [7] [%] | inhibition at 5 µg/mL (Leishmania major [8]) [%] | other results
1 | COc1c(/C=C/C(=O)c2ccc(O)cc2)ccc(O)c1CC=C(C)C | 30.4 | 3.9 | 5.5 | 73.2 | 93.8 | 51.5 | 14.8 | 20.7 | 
2 | COc1cc(O)ccc1/C=C/C(=O)c1ccc(O)cc1 [ECHINATIN] | 9.2 |  |  |  |  | 30 | 7.8 | 16.4 | inhibition at 100 µg/mL (Leishmania major [9]): 86.8%; inhibition at 5 µg/mL (Leishmania donovani [10]): 92%; inhibition at 0.5 µg/mL (Leishmania donovani [11]): 57%; inhibition at 1 µg/mL (Leishmania donovani [12]): 62%; inhibition at 50 µg/mL [13]: 18%; inhibition at 50 µg/mL (Leishmania major [14]): 69.3%; inhibition at 100 µg/mL [15]: 26.4%; inhibition at 25 µg/mL [16]: 10.4%; inhibition at 25 µg/mL (Leishmania major [17]): 50.3%; inhibition at 10 µg/mL (Leishmania donovani [18]): 94%
3 | C=CC(C)(C)c1cc(/C=C/C(=O)c2ccc(O)cc2)c(OC)cc1O [LICOAGROCHACONE A] | 39.7 | 3.6 | 4.7 | 65.3 | 96 | 91.9 | 20.8 | 63.9 | 
4 | Pentostam |  |  |  |  |  |  |  |  | inhibition (Leishmania major [19]): 95%; inhibition (Leishmania major [20]): 35%; inhibition (Leishmania major [21]): 18%
